Measurements from US5972932A, “Anesthetic method and composition” (Eli Lilly and Company, priority 1997, dated 1999).

Legend:
[1] = test system: 5-HT2C (formorly knowm as 5-HT1C receptor) receptor; assay: pharmacological studies, 5-HT2C receptor activity; conditions: formerly 5-HT1C receptor
[2] = test system: muscarinic cholinergic receptor; assay: pharmacological studies, muscarinic cholinergic receptor activity

## Cc1cc2c(s1)Nc1ccccc1N=C2N1CCN(C)CC1 [olanzapine, 2-methyl-4-(4-methyl-1-piperazinyl)-10H-thieno[2,3-b][1,5]benzodiazepine]
[1]
  activity at the 5-HT2C receptor: active
[2]
  muscarinic cholinergic receptor activity: has muscarinic cholinergic receptor activity
